The values below come from US9073851B2, “Compositions and methods for treating cancer” (Board of Regents, The University of Texas System, priority 2011, dated 2015).

One assay has as its system MCF7 cells. Kind of assay: MTS cell viability/proliferation assay. The class given is cell-based, human. The text has this:
(§1) Viable and dead cells were detected by the trypan blue exclusion assay, where viable cells (non-stained) with intact membrane are able to exclude the dye, while dead cells take up the coloring blue agent from the media. To quantitatively assess the viability and/or proliferation of cells a MTS assay was used, which incorporates a redox indicator that changes color in response to metabolic activity. To study cell viability in response to CaMK-III siRNA or control siRNA and plasmid encoding CaMK-III or empty plasmid transfection cells were seeded in 96-well plates at a density of 3×10^3 cells per well in 100 μl of medium. Next day the medium was removed and cells were transfected with siRNA at different concentrations in 100 μl of medium plus transfection mix. Two days after transfection, the medium was removed and replaced by 180 μl of medium plus 20 μl of MTS and the cells were incubated under normal conditions until the color changed. Plates were read at dual wavelengths (570-595 nm) in an Elisa plate reader (Kinetic Microplate Reader, Molecular Devices Corporation, Sunnyvale, Calif.).
(§2) (aka proliferation assay, in this case MTS assay was used. MTS, MTT, XTT all similar assays often used as cell viability/toxicity assay). Cell viability in response to compounds such as 5NT and KD06 was studied with a tetrazolium/formazan based assay (MTS, Celltiter 96 aqueous one solution cell proliferation assay, Promega, WI) [Akar U, Chaves-Reyez A, Barria g Tari A, Sanguino A, Kondo Y, Kondo S, Arun B, Lopez-Berestein G, Ozpolat B: Silencing of Bcl-2 expression by small interfering RNA induces autophagic cell death in MCF-7 breast cancer cells. Autophagy 2008, 4:669-679, Ozpolat 2007 MCR]. Cells were seeded in 96 wells plates at a density of 1.5 to 3.0×10^3 cells per well in 100 μl of medium. Next day the medium was removed and cells were treated with the drug in 100 μl of medium for 72 hours. Plates were read at 490 nm wavelength in an Elisa plate reader (Kinetic Microplate Reader, Molecular Devices Corporation, Sunnyvale, Calif.).

The subject of the next assay is MCF7/Dox resistant cells. Kind of assay: MTS cell viability/proliferation assay. The class given is cell-based, human.
Source text: as §1, §2

The subject of the next assay is MDA-MB-231 tumors. Put plainly: Orthotopic MDA-MB-231 xenograft breast cancer model. The class given is in vivo, nude mice. The following applies: DOPC nanoliposomal, i.v., 5.8 mg/kg twice weekly (4 weeks). On the procedure:
FIG. 3. New role for triptan derivatives targeting the 5-HT1B receptor as a therapeutic modality for breast cancer. (A). […] Treatments, twice per week (4 weeks) were safe and effective. Methods: Phospholipid dioleoylphosphatidylcholine (DOPC) and triptan 5-NT were mixed in tertiary butanol at a lipid:5-NT ratio of 10:1 (w/w). Tween 20 was added at a ratio of 1:20 ratio (w/w) and the mixture lyophilized overnight. The powder was reconstituted in saline and sonicated for one minute. The liposome formulation was injected (100 μl) into the tail vein. (B). 5-NT induces apoptotic cell death of ER(+) MCF-7 cells. (C). […] (D). […] (E). The 5-HT1B receptor is over-expressed in triple negative highly aggressive, and metastatic breast cancer cells as well as drug resistant (i.e. tamoxifen and doxorubicin) breast cancer cells. Methods: Blots were visualized with a FluorChem 8900 imager and quantified by a densitometer using the Alpha Imager application program.
For in vivo delivery siRNA was incorporated into dioleoyl-sn-glycero-3-phosphocholine (DOPC). DOPC and siRNA were mixed in the presence of excess tertiary butanol at a ratio of 1:10 (w/w) siRNA/DOPC [Shaw L M. Methods Mol Biol 2005: 294:97-105]. Before in vivo administration, this preparation was hydrated with normal 0.9% saline in 100 μL for i.v injection per mouse. […]

For another assay, the system named is MCF-7 cells. Kind of assay: Apoptosis / cell death in MCF-7 cells (Annexin V, FACS). The class given is cell-based, human. The method, then: Apoptosis was assessed by an Annexin V assay, monitoring PARP and caspase 9 cleavage by Western blot. To provide a comparative assay of apoptosis by Annexin V labeling, tumor cells (1×10^6) treated with CaMK-III siRNA or control siRNA for 24 to 96 hours were harvested and washed with PBS. Cells were resuspended in binding buffer and stained with Annexin V and propidium iodide (PI) according to the manufacturer's protocol (BD Pharmingen Annexin V kit, San Diego, Calif.). Positive cells were detected and quantified by FACS analysis.

With `CCCCCCCCCOc1ccc2[nH]cc(CCN)c2c1` [5-NT, 5-nonylytryptamine], the “selectivity for tumorigenic MCF-7 compared to non-tumorigenic MCF-10A” value in the assay with MCF7 cells is on record as “much higher selectivity”. Besides, the inhibition of proliferation result in the assay on MCF7 cells (ER(+)) and with MCF7/Dox resistant cells was “inhibits proliferation” each time. In addition, the tumor growth entry in the assay on MDA-MB-231 tumors is listed as “significantly inhibits growth”. In the assay with MCF-7 cells, the induction of apoptosis entry is given as “induced robust apoptosis”. In the assay with MCF-7 cells (with a low dose of doxorubicin), the “cell death in combination with doxorubicin” value is “synergistic cell death”.
